# Data taken from US20130197090A1, “POSTURAL STABILITY AND INCIDENT FUNCTIONS IN PATIENTS” (Chelsea Therapeutics, Inc., priority 2012, published 2013).
# Legend:
# PD patients [1] = assay: Patient-reported falls, double-blind placebo-controlled study of Example 1; format: in vivo, human
# Procedure: A multi-center, double-blind, randomized, parallel-group, placebo-controlled study was carried out to assess the clinical effect of droxidopa over the course of 10 weeks for reducing falls in PD patients. The study included a two week double-blind dose-titration period followed by an eight week double-blind treatment period. A screening period (up to 14 days) was used to determine patient eligibility. Throughout the study, visit specific assessments were conducted three hours (an acceptable range was two to five hours) following the patient's first daily dose of droxidopa. Patients who successfully passed all screening assessments continued to the baseline measurements. At the end of the baseline visit, eligible patients were randomized to treatment with either droxidopa or placebo (randomization was double-blind, 1:1). Patients entered a double-blind titration phase at 100 mg TID of droxidopa or matching placebo. Treatment was escalated in 100 mg TID increments to a maximum of 600 mg TID. Upon completion of the dose titration phase, patients returned for a study visit after 8 weeks of double-blind treatment at their titrated dose. The study included 27 placebo-treated patients and 24 droxidopa-treated patients. During the study, the placebo-treated patients reported a total of 197 falls compared with 79 falls reported by the droxidopa-treated patients. […] Standardizing the above data to the number of falls per patient per week, patients randomized to the placebo treatment experienced an average of 0.93 falls per patient per week. Patients randomized to the droxidopa treatment experienced an average of 0.39 falls per patient per week. This represents an approximate 60% reduction in the number of falls reported by droxidopa-treated patients compared with placebo-treated patients. […] In the study, it was evident that a number of patients in each group was not normally distributed—i.e., a few patients in each group experienced many more falls than the remaining patients in each respective group. A sensitivity analysis was performed to assess the robustness of the treatment effect in light of this disparity in falls within each group. The beneficial treatment effect favoring droxidopa was evident even when the top two patients or the top five patients who experienced the highest number of falls in each treatment group were removed from the analysis. See FIG. 4 and FIG. 5, respectively. When the top two patients in each treatment group were excluded, patients randomized to the placebo group experienced an average of 0.54 falls per patient per week compared with 0.16 falls per patient per week in patients randomized to the droxidopa group. Similarly, when the top five patients in each treatment group were excluded, patients randomized to the placebo group experienced an average of 0.20 falls per patient per week compared with 0.10 falls per patient per week in patients randomized to the droxidopa group.
# PD patients [2] = assay: Hoehn and Yahr rating scale score, study of Example 1; format: in vivo, human; conditions: for Hoehn and Yahr, Baseline: before treatment
# Procedure: (§1) A multi-center, double-blind, randomized, parallel-group, placebo-controlled study was carried out to assess the clinical effect of droxidopa over the course of 10 weeks for reducing falls in PD patients. The study included a two week double-blind dose-titration period followed by an eight week double-blind treatment period. A screening period (up to 14 days) was used to determine patient eligibility. Throughout the study, visit specific assessments were conducted three hours (an acceptable range was two to five hours) following the patient's first daily dose of droxidopa. Patients who successfully passed all screening assessments continued to the baseline measurements. At the end of the baseline visit, eligible patients were randomized to treatment with either droxidopa or placebo (randomization was double-blind, 1:1). Patients entered a double-blind titration phase at 100 mg TID of droxidopa or matching placebo. Treatment was escalated in 100 mg TID increments to a maximum of 600 mg TID. Upon completion of the dose titration phase, patients returned for a study visit after 8 weeks of double-blind treatment at their titrated dose. The study included 27 placebo-treated patients and 24 droxidopa-treated patients.
# (§2) Patients in the study were evaluated using the Hoehn and Yahr rating scale and the Movement Disorder Society-sponsored revised version of the UPDRS to evaluate the effect of treatment as evidenced by these two scales. A baseline score for each patient using each test was established prior to treatment with droxidopa or the placebo, and a post-treatment score for each test was established at the end of the study.
# Since the Hoehn and Yahr rating scale is heavily weighted towards postural instability as the primary index of disease severity, it is believed that the Hoehn and Yahr score serves as a useful measure of the effect of treatment on NOH in a PD patient population. At the end of this study, droxidopa-treated patients experienced, on average, an improvement from baseline (i.e., a reduction in the score) in their Hoehn and Yahr rating scale score (change: −0.4 points) while placebo-treated patients experienced no change from baseline in their Hoehn and Yahr rating scale score, resulting in a notable treatment difference of −0.4 units favoring droxidopa. Based on an analysis of Hoehn and Yahr rating scale scores in individual patients, a higher proportion of droxidopa-treated patients experienced an improvement in their Hoehn and Yahr rating scale score at the end of the study (10 of 24 patients; 42%) compared with placebo-treated patients (5 of 27 patients; 19%). Conversely, a lower proportion of droxidopa-treated patients experienced a worsening in their Hoehn and Yahr rating scale score at the end of the study (3 of 24 patients; 13%) compared with placebo-treated patients (10 of 27 patients; 37%).
# PD patients [3] = assay: MDS-UPDRS score, study of Example 1; format: in vivo, human; conditions: for MDS-UPDRS, Baseline: before treatment
# Procedure: as §1, §2
# The UPDRS likewise is a useful test for evaluating improvements in symptoms that can be a cause of falls in PD patients since this scale is used to assess the severity of motor and non-motor symptoms in PD patients. In the present study, droxidopa-treated patients experienced a 15.8 point improvement (i.e., decrease) from baseline compared with an 11.4 point improvement in placebo-treated patients. […] The 4.4 point treatment difference favoring droxidopa in the total UPDRS score reflects pronounced improvement in the motor features of PD and mirrors the improvements observed on the Hoehn and Yahr rating scale score.
# [4] = test system: PD patients suffering from "freezing of gait"; conditions: Narabayashi et al. 1981; cited from earlier work
# PD patients [5] = assay: Patient falls, double-blind placebo-controlled study of Example 2; format: in vivo, human
# Procedure: A multi-center, double-blind, randomized, placebo-controlled study was carried out to assess the clinical effect of droxidopa for reducing falls in PD patients. The study included a two week double-blind dose-titration period followed by an eight week double-blind treatment period. A screening period (up to 14 days) was used to determine patient eligibility. The patients were then randomized into a treatment group and a placebo group. Patients entered a double-blind titration phase at 100 mg TID of droxidopa or matching placebo. Treatment was escalated in 100 mg TID increments to a maximum of 600 mg TID. Upon completion of the dose titration phase, patients returned for study visits after 1, 2, 4, and 8 weeks of double-blind treatment at their titrated dose. The study included 78 placebo-treated patients and 69 droxidopa-treated patients. […] This is illustrated in FIG. 9.
# MAO-A = target: T1, MAO-A (Homo sapiens, UniProt P21397); conditions: cited from earlier work
# T1 sequence (P21397 1-527): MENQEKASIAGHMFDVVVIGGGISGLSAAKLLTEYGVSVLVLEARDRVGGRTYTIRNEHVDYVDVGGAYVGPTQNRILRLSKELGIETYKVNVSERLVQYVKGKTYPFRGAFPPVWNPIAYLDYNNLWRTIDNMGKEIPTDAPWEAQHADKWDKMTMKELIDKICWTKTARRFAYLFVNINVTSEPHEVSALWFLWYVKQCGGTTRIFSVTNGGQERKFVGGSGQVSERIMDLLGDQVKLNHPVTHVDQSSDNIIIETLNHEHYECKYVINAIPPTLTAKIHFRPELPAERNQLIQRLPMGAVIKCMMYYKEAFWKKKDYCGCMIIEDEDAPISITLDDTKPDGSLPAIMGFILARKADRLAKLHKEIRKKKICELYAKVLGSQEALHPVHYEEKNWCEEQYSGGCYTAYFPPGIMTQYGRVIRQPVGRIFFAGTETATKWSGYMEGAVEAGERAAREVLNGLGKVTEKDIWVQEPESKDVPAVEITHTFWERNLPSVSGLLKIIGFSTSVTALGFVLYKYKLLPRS
# [6] = patients with recurrent falls, versus placebo
smiles,measurement,setting,value
"NC(C(=O)O)C(O)c1ccc(O)c(O)c1 (stereo not drawn) [droxidopa, threo-3-(3,4-dihydroxyphenyl) serine]",reduction in the number of falls compared with placebo-treated patients,PD patients [1],~60%
same,total number of falls reported during the study,"PD patients [1]; 10 weeks, 24 droxidopa-treated patients, titrated 100-600 mg TID, placebo 197",79 falls
same,treatment effect on total number of patient falls,PD patients [1]; data from the first 10 days of the study removed,beneficial treatment effect favoring droxidopa on the total number of patient falls remained evident
same,average falls per patient per week,"PD patients [1]; full analysis set, placebo 0.93",0.39 falls per patient per week
same,patients who experienced recurrent falls,"PD patients [1]; of 24 droxidopa-treated patients, placebo 12 of 27",nine
same,average falls per patient per week,"PD patients [1]; top five patients with highest number of falls in each group excluded, placebo 0.20",0.10 falls per patient per week
same,average falls per patient per week,"PD patients [1]; top two patients with highest number of falls in each group excluded, placebo 0.54",0.16 falls per patient per week
same,cumulative number of patient-recorded falls over time,PD patients [1]; versus placebo,relative increase in the number of falls in the placebo treatment group over time was consistently larger compared with the relative increase over time in the droxidopa treatment group
same,"Hoehn and Yahr, End of Study",PD patients [2]; Non-recurrent Fallers (n = 15),1.4
same,"Hoehn and Yahr, Baseline",PD patients [2]; Non-recurrent Fallers (n = 15),1.8
same,"Hoehn and Yahr, End of Study",PD patients [2]; Recurrent Fallers (n = 9),1.7
same,"Hoehn and Yahr, Baseline",PD patients [2]; Recurrent Fallers (n = 9),1.9
same,"Change in Hoehn and Yahr Rating Scale Score: Improved, %","PD patients [2]; end of study, N = 24",42%
same,"Change in Hoehn and Yahr Rating Scale Score: No Change, %","PD patients [2]; end of study, N = 24",46%
same,"Change in Hoehn and Yahr Rating Scale Score: Worsened, %","PD patients [2]; end of study, N = 24",13%
same,change from baseline in Hoehn and Yahr rating scale score,"PD patients [2]; end of study, all droxidopa-treated patients, average, placebo no change",−0.4 points
same,treatment difference in Hoehn and Yahr rating scale score favoring droxidopa,"PD patients [2]; end of study, versus placebo",−0.4 units
same,improvement in Hoehn and Yahr score,PD patients [2]; [6],marked improvement
same,"MDS-UPDRS, End of Study",PD patients [3]; Non-recurrent Fallers (n = 15),58.1
same,"MDS-UPDRS, Baseline",PD patients [3]; Non-recurrent Fallers (n = 15),74.3
same,"MDS-UPDRS, End of Study",PD patients [3]; Recurrent Fallers (n = 9),77.7
same,"MDS-UPDRS, Baseline",PD patients [3]; Recurrent Fallers (n = 9),89.1
same,improvement (decrease) from baseline in UPDRS score,"PD patients [3]; end of study, all droxidopa-treated patients, placebo 11.4",15.8 point
same,improvement in UPDRS score,PD patients [3]; [6],marked improvement
same,each of the four components of the UPDRS score,PD patients [3]; versus placebo,showed benefits for droxidopa compared with placebo
same,treatment difference favoring droxidopa in the total UPDRS score,PD patients [3]; versus placebo,4.4 point
same,effect on freezing of gait,[4],a beneficial effect was reported
same,rate of falls per patient per week,"PD patients [5]; 69 droxidopa-treated, 78 placebo-treated patients, titrated 100-600 mg TID",visibly less than in the placebo treatment group
same,"treatment effect on falls, sensitivity analysis","PD patients [5]; top two, top five and top ten patients with highest number of falls in each group removed",beneficial treatment effect favoring droxidopa was again evident
O=C(NCCN1CCOCC1)c1ccc(Cl)cc1 [moclobemide],selectivity for MAO-A over MAO-B,MAO-A,approximately three times more selective for MAO-A than MAO-B
